Data: patent US8012987B2, “Indolo[2,1-b] quinazole-6,12-dione antimalarial compounds and methods of treating malaria therewith” (The United States of America as represented by the …, priority 1998, dated 2011)
≈ marks a conversion by molar mass, not a printed value.

Experiments:
[1] = system: Plasmodium falciparum clone CDC Sierra Leone I (D-6); assay: In vitro inhibition of [3H]hypoxanthine uptake, P. falciparum D-6 clone; assay type: cell-based; conditions: Plasmodium falciparum, values in parentheses: culture medium with 10% Albumax I; read-out: IC50 (D-6)
Protocol: (§1) The in vitro assays were conducted by using a modification of the semiautomated microdilution technique of Desjardins et al.^11 and Chulay et al.^12 Two strains of Plasmodium falciparum clones, from CDC Indochina III (W-2), CDC Sierra Leone I (D-6). […] These solutions were subsequently serially diluted 2-fold with a Biomek 1000® (Beckman, Fullerton, Calif.) over 11 different concentrations. The parasites were exposed to serial dilutions of each compound for 48 h and incubated at 37° C. with 5% O2, 5% CO2, and 90% N2 prior to the addition of [^3H]hypoxanthine. […] Uptake of [^3H]hypoxanthine was measured with a Packard Topcount scintillation counter. […] The values without parentheses indicate culture in blood serum which more closely resemble conditions in a living animal.
(§2) The numbers associated with both W2 and D6 refer to IC50 values and the units are ng/ml.

[2] = system: Plasmodium falciparum clone CDC Indochina III (W-2); assay: In vitro inhibition of [3H]hypoxanthine uptake, P. falciparum W-2 clone; assay type: cell-based; conditions: Plasmodium falciparum, values in parentheses: culture medium with 10% Albumax I; read-out: IC50 (W-2)
Protocol: as §1, §2

Row | Compound | IC50 [1] [µg/mL] | IC50 [2] [µg/mL]
1 | O=C1c2cc(Cl)ccc2-n2c1nc1ccc(I)cc1c2=O [Example 42] | 0.0764 (≈ 0.187 µM) | 0.0632 (≈ 0.155 µM)
2 | O=C1c2ccccc2-n2c1nc1ccccc1c2=O [Example 1] | 0.069 (≈ 0.278 µM) | 0.069 (≈ 0.278 µM)
3 | O=C1c2cc(C3OCCCO3)ccc2-n2c1nc1ccncc1c2=O [Example 77] | 0.22 (≈ 0.657 µM) | 0.165 (≈ 0.493 µM)
4 | Cc1cccc2c(=O)n3c(nc12)C(=O)c1ccccc1-3 [Example 6] | 0.527 (≈ 2.01 µM) | 0.503 (≈ 1.92 µM)
5 | CCOC(=O)C(O)(C(=O)OCC)C1c2ccccc2-n2c1nc1ccccc1c2=O (stereo not drawn) [Example 65] | 0.259 (≈ 0.634 µM) | 0.154 (≈ 0.377 µM)
6 | CN1CCN(c2cc3c(cc2F)C(=O)c2nc4ccccc4c(=O)n2-3)CC1 [Example 18] | 0.813 (≈ 2.23 µM) | 0.513 (≈ 1.41 µM)
7 | CC(C)(C)OC(=O)N/N=C1/c2ccccc2-n2c1nc1ccccc1c2=O [Example 36] | 4.2 (≈ 11.6 µM) | 4.82 (≈ 13.3 µM)
8 | Cc1ccc2c(c1)C(=O)c1nc3ccncc3c(=O)n1-2 [Example 82] | 0.0628 (≈ 0.239 µM) | 0.124 (≈ 0.471 µM)
9 | CCCCCCCCc1ccc2nc3n(c(=O)c2c1)-c1ccc(Cl)cc1C3=O [Example 44] | 6.92 (≈ 17.5 µM) | 5.86 (≈ 14.8 µM)
10 | CCOC(=O)c1nc2ccccc2c(=O)n1-c1ccccc1 [Example 53] | 9.01 (≈ 30.6 µM) | 4.87 (≈ 16.6 µM)
11 | CN1CCN(c2cc3c(cc2F)C(=O)c2nc4cc(F)ccc4c(=O)n2-3)CC1 [Example 20] | 1.05 (≈ 2.76 µM) | 0.734 (≈ 1.92 µM)
12 | O=C1c2ccccc2-n2c1nc1ccncc1c2=O [Example 52] | 0.0733 (≈ 0.294 µM) | 0.0647 (≈ 0.26 µM)
13 | NC(=O)N/N=C1/c2ccccc2-n2c1nc1ccccc1c2=O [Example 37] | 3.78 (≈ 12.4 µM) | 3.48 (≈ 11.4 µM)

Results, then the compound that gave them:

Row | IC50 [1] [µg/mL] | IC50 [2] [µg/mL] | Compound
14 | 0.313 (≈ 1.19 µM) | 0.264 (≈ 1.01 µM) | Cc1ccc2nc3n(c(=O)c2c1)-c1ccccc1C3=O [Example 5]
15 | 0.0671 (≈ 0.158 µM) | 0.0796 (≈ 0.188 µM) | O=C1c2ccccc2-n2c1nc1c(Br)cc(Br)c(F)c1c2=O [Example 33]
16 | 0.00397 (≈ 0.0106 µM) | 0.00167 (≈ 0.00445 µM) | O=C1c2cc(I)ccc2-n2c1nc1ncccc1c2=O [Example 23]
17 | 0.138 (≈ 0.469 µM) | 0.131 (≈ 0.445 µM) | Cc1cc(C)c2nc3n(c(=O)c2c1)-c1ccc(F)cc1C3=O [Example 10]
18 | 0.062 (≈ 0.22 µM) | 0.062 (≈ 0.22 µM) | Nc1ccc2nc3n(c(=O)c2c1)-c1ccc(F)cc1C3=O [Example 8]
19 | 0.0739 (≈ 0.186 µM) | 0.0747 (≈ 0.188 µM) | CCN(CCN(C)C)c1ccc2c(=O)n3c(nc2c1)C(=O)c1cc(Cl)ccc1-3 [Example 49]
20 | 0.224 (≈ 0.49 µM) | 0.16 (≈ 0.35 µM) | CCOC(=O)C(O)(C(=O)OCC)C1c2cc(F)ccc2-n2c1nc1c(OC)cccc1c2=O (stereo not drawn) [Example 76]
21 | 0.0123 (≈ 0.0341 µM) | 0.00766 (≈ 0.0212 µM) | CCCCCCCCc1ccc2c(c1)C(=O)c1nc3ccncc3c(=O)n1-2 [Example 41]
22 | 1.71 (≈ 4.12 µM) | 0.938 (≈ 2.26 µM) | O=C1c2cc(C(O)(C(F)(F)F)C(F)(F)F)ccc2-n2c1nc1ccncc1c2=O [Example 84]
23 | 0.5 (≈ 2 µM) | 0.354 (≈ 1.42 µM) | O=C1c2ccccc2-n2c1nc1nccnc1c2=O [Example 30]
24 | 0.471 (≈ 1.67 µM) | 0.403 (≈ 1.43 µM) | O=C1c2c(Cl)cccc2-n2c1nc1ccccc1c2=O [Example 9]
25 | 0.278 (≈ 0.979 µM) | 0.263 (≈ 0.927 µM) | O=C1c2ccc(Cl)cc2-n2c1nc1ncccc1c2=O [Example 22]
26 | 0.143 (≈ 0.397 µM) | 0.12 (≈ 0.332 µM) | CCCCCCC(C)c1ccc2c(c1)C(=O)c1nc3ccncc3c(=O)n1-2 (stereo not drawn) [Example 71]
27 | 0.242 (≈ 0.549 µM) | 0.203 (≈ 0.461 µM) | O=C1c2ccccc2-n2c1nc1c(Br)cc(Br)c(Cl)c1c2=O [Example 38]
28 | 3.85 (≈ 9.43 µM) | 2.59 (≈ 6.34 µM) | O=C1c2cc(I)ccc2-n2c1nc1c(O)nc(O)nc1c2=O [Example 32]
29 | 38.2 (≈ 104 µM) | 23 (≈ 62.6 µM) | O=C(N/N=C1\c2ccccc2-n2c1nc1ccccc1c2=O)c1ccncc1 [Example 43]
30 | 0.149 (≈ 0.281 µM) | 0.131 (≈ 0.245 µM) | O=C1c2cc(I)ccc2-n2c1nc1c(Br)cc(Br)cc1c2=O [Example 29]
